# Source: patent publication US20090326008A1, “NF-kappa B Inhibitor” (priority 2006, published 2009)
# Tested on: NF-κB
# Test: NF-kappaB reporter assay (pNF-kappaB-SEAP) in IL-1β-stimulated MKN-45 cells
# Format: cell-based, human
# Conditions: IL-1β 2 ng/mL for 6 hours, DMSO (0.05%) control = 1.00, triplicate
# Method: pNF-kappaB-SEAP was obtained from Clonetech Laboratories Inc.
# Cryopreserved MKN-45 cells (product of JCRB (Japanese Collection of Research Bioresources)) were thawed and cultured in a standard medium in an incubator (37° C., 5% CO2). Every three to five days, the cells were recovered by treatment with Trypsin-EDTA, then adequately diluted and subcultured. MKN-45 cells subcultured two or more times with a survival rate of 95% or more were used in each experiment.
# The subcultured MKN-45 cells were harvested using Trypsin-EDTA solution, and the number of viable cells was counted. The cells were suspended in a standard medium to yield a 1.5×10^5 cells/mL suspension. A 24-well plate was seeded with 500 μL/well of the cell suspension, and the cells were cultured in an incubator (37° C., 5% CO2).
# The day after seeding, transfection was performed according to the following protocol.
# (4.1) Preparation of Plasmid Solution 4 μL of 0.1 μg/μL pNFkappaB-SEAP was placed into each well and diluted with 50 μL of OPTI-MEM I (product of Invitrogen Japan K.K.) by mixing by inversion.
# 1 μL of Lipofectamine 2000 reagent (product of Invitrogen) was placed into each well and diluted with 50 μL of OPTI-MEM I (product of Life Technologies Inc.) by mixing by inversion. The mixture was allowed to stand at room temperature for 5 to 10 minutes to prepare a Lipofectamine dilution.
# The plasmid solution and the Lipofectamine dilution were mixed by inversion and allowed to stand at room temperature for 20 to 30 minutes to prepare a transfection mixture.
# The culture medium was removed from the 24-well plate by suction. While care was taken not to dry the subcultured MKN-45 cells, the inner surface of the wells was washed with 1 mL/well of PBS. After the medium was replaced with 500 μL/well of OPTI-MEM I (product of Life Technologies Inc.), 100 μL/well of the transfection mixture was added, and the cells were cultured in a incubator (37° C., 5% CO2). After about 5 hours of incubation, the medium was replaced with a standard medium, and the cells were further cultured in a CO2 incubator (37° C., 5% CO2) until the following day.
# On the following morning, the culture medium supernatant was removed by suction and replaced with 1 mL/well of the test compound solution or control solution diluted with a standard medium. The cells were cultured in a CO2 incubator (37° C., 5% CO2) for 1 hour. Each experiment was performed in triplicate.
# 200 ng/mL IL-1β was added in an amount of 10 μL/well (final concentration: 2 ng/mL), and the cells were cultured in a CO2 incubator (37° C., 5% CO2) for 6 hours.
# A reporter assay was performed using Reporter Assay Kit-SEAP (product of Toyobo Co.) according to the manufacturer's protocol.
# More specifically, 500 μL of the culture broth was transferred into a tube and centrifuged at 15,000 rpm for 5 minutes at 4° C. The supernatant was transferred into a 96-well white plate. The positive control included in the Reporter Assay Kit-SEAP, and a standard medium as a blank control were each added in an amount of 20 μL/well to the 96-well white plate. Further, an inhibitor for inhibiting the AP activity of the MKN-45 cells was added in an amount of 20 μL/well. After sealing the plate, the contents were mixed well. The plate was placed into a CO2 incubator (37° C., 5% CO2) and allowed to stand for 30 minutes. Subsequently, the plate was allowed to stand on ice for 1 minute, followed by addition of 160 μL/well of Lumi-Phos Plus (a chemiluminescent substrate, product of Lumigen Inc.). The plate was sealed again and placed in a light-shielded state into a CO2 incubator (37° C., 5% CO2). After the plate was allowed to stand for 15 to 30 minutes, luminescence was measured for about 5 to about 10 seconds using a luminometer.
# The results of the reporter assay were expressed as Percent Control (or Inhibition), calculated according to the following formulae. The luminescence of each sample was calculated by subtracting the average of blank samples.
compound,measurement,value
COc1ccc(CC2SC(=S)NC2=O)c2c1N(CCC(C)C)C(=O)CC2 (stereo not shown) [Test Compound 965],"NF-kappaB reporter (SEAP luminescence) IL-1b(+) mean, relative to control",0.68
